{
  "source": "ChEMBL document CHEMBL5113368",
  "about": "“Meroterpenoids produced by fungi: Occurrence, structural diversity, biological activities, and their molecular targets” (Eur J Med Chem, 2021)",
  "key": {"Beta-secretase 1": {"biological_target": "Beta-secretase 1 (Homo sapiens, UniProt P56817)", "sequence (P56817 whole entry)": "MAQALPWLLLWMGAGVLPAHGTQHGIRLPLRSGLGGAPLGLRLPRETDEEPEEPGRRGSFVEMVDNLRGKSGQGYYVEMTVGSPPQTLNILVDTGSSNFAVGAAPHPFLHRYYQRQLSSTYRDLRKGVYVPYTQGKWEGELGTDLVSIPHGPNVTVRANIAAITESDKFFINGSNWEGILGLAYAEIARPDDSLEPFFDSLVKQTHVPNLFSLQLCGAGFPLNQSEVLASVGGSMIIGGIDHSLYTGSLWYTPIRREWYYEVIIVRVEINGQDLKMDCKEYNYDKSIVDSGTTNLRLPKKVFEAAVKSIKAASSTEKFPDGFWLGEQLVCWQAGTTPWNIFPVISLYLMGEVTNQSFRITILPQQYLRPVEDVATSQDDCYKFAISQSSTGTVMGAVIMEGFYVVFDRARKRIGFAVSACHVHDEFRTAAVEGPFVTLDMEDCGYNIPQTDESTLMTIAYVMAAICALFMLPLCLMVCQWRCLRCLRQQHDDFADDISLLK", "assay": "Inhibition of BACE1 (unknown origin) using […] incubated in dark for 1 hr by fluorescence based analysis"}, "MCF7 [1]": {"system": "MCF7", "assay": "Cytotoxicity against human MCF7 cells assessed as cell growth inhibition measured after 96 hrs by MTT assay", "format": "functional, cell-based", "details": "MCF7, 96 h"}, "[2]": {"assay": "Antioxidant activity assessed as ABTS radical scavenging activity", "format": "functional"}, "[3]": {"assay": "Antioxidant activity assessed as DPPH radical scavenging activity", "format": "functional"}, "MCF7 [4]": {"system": "MCF7", "assay": "Antiproliferative activity against human MCF7 cells assessed as cell growth inhibition", "format": "functional, cell-based"}, "A549": {"system": "A549", "assay": "Antiproliferative activity against human A549 cells assessed as cell growth inhibition", "format": "functional, cell-based"}, "SF-268": {"system": "SF-268", "assay": "Antiproliferative activity against human SF-268 cells assessed as cell growth inhibition", "format": "functional, cell-based"}, "HepG2": {"system": "HepG2", "assay": "Antiproliferative activity against human HepG2 cells assessed as cell growth inhibition", "format": "functional, cell-based"}, "[5]": {"system": "Human immunodeficiency virus 1", "assay": "Antiviral activity against HIV1 VSV-G pseudotyped virus infected in human SUP-T1 cells infected using supernatant of virus-producing 293T cells incubated for 48 hrs by firefly luciferase assay", "format": "functional, organism-based", "details": "Human immunodeficiency virus 1, SUP-T1, 48 h"}, "HeLa": {"system": "HeLa", "assay": "Cytotoxicity against human HeLa cells assessed as cell growth inhibition measured after 48 hrs by CCK-8 assay", "format": "functional, cell-based"}, "SW480": {"system": "SW480", "assay": "Cytotoxicity against human SW480 cells assessed as cell growth inhibition measured after 48 hrs by CCK-8 assay", "format": "functional, cell-based", "details": "SW480, 48 h"}, "[6]": {"system": "Clavibacter michiganensis subsp. sepedonicus", "assay": "Antibacterial activity against Clavibacter michiganensis subsp. sepedonicus assessed as inhibition of bacterial growth measured after 18 to 48 hrs", "format": "functional", "details": "time 18-48 hrs"}, "[7]": {"assay": "Inhibition of rat intestinal alpha-glucosidase"}, "[8]": {"assay": "Inhibition of rat intestinal sucrase"}, "[9]": {"assay": "Inhibition of rat intestinal maltase"}, "Botrytis cinerea": {"system": "Botrytis cinerea", "assay": "Antifungal activity against Botrytis cinerea assessed as fungal growth inhibition by modified broth dilution", "format": "functional"}, "Fusarium graminearum": {"system": "Fusarium graminearum", "assay": "Antifungal activity against Fusarium graminearum assessed as fungal growth inhibition by modified broth dilution", "format": "functional"}, "Verticillium dahliae [10]": {"system": "Verticillium dahliae", "assay": "Antifungal activity against Verticillium dahliae assessed as fungal growth inhibition by modified broth dilution", "format": "functional"}, "Sclerotinia sclerotiorum": {"system": "Sclerotinia sclerotiorum", "assay": "Antifungal activity against Sclerotinia sclerotiorum assessed as fungal growth inhibition by modified broth dilution", "format": "functional"}, "Phytophthora nicotianae [11]": {"system": "Phytophthora nicotianae", "assay": "Antifungal activity against Phytophthora parasitica assessed as fungal growth inhibition by modified broth dilution", "format": "functional"}, "Colletotrichum acutatum": {"system": "Colletotrichum acutatum", "assay": "Antifungal activity against Colletotrichum acutatum assessed as fungal growth inhibition by modified broth dilution", "format": "functional"}, "Bipolaris maydis": {"system": "Bipolaris maydis", "assay": "Antifungal activity against Bipolaris maydis assessed as fungal growth inhibition by modified broth dilution", "format": "functional"}, "[12]": {"assay": "Toxicity in brine shrimp assessed as induction of lethality", "details": "artemia salina; read-out: LD50 (the source's name)"}, "KB": {"system": "KB", "assay": "Cytotoxicity against human KB cells assessed as cell growth inhibition", "format": "functional, cell-based"}, "[13]": {"system": "Mycobacterium tuberculosis", "assay": "Antimycobacterial activity against Mycobacterium tuberculosis H37Ra assessed as inhibition of bacterial growth by microplate alamar blue assay", "format": "functional"}, "NCI-H187": {"system": "NCI-H187", "assay": "Cytotoxicity against human NCI-H187 cells assessed as cell growth inhibition", "format": "functional, cell-based"}, "Bacillus subtilis": {"system": "Bacillus subtilis", "assay": "Antibacterial activity against Bacillus subtilis assessed as reduction in microbial growth by modified broth dilution test", "format": "functional"}, "Phytophthora nicotianae [14]": {"system": "Phytophthora nicotianae", "assay": "Antifungal activity Phytophthora parasitica assessed as inhibition of fungal growth by microbroth dilution method", "format": "functional"}, "Verticillium dahliae [15]": {"system": "Verticillium dahliae", "assay": "Antifungal activity Verticillium dahliae assessed as inhibition of fungal growth by microbroth dilution method", "format": "functional"}, "Bipolaris oryzae": {"system": "Bipolaris oryzae", "assay": "Antifungal activity against Cochliobolus miyabeanus assessed as fungal growth inhibition measured after 24 hrs by microscopic analysis", "format": "functional, organism-based"}},
  "data": [
    {"smiles": "C=C1[C@@]23C(=O)O[C@H](C)[C@@]2(O)C(=O)O[C@]1(C)[C@@H](O)C1=C2CO[C@H]4CC(=O)OC(C)(C)[C@@]24CC[C@@]13C", "values": [
      {"measurement": "IC50", "setting": "Beta-secretase 1", "value": 0.078, "unit": "µM"}
    ]},
    {"smiles": "CC(C)=CC[C@H]1C(=O)C2=C(CO[C@@H]2CCO)[C@@H](O)[C@H]1O", "values": [
      {"measurement": "IC50", "setting": "MCF7 [1]", "value": 4.2, "unit": "µM"}
    ]},
    {"smiles": "C/C(=C\\CCC1=CC(c2cc(O)ccc2O)OC1=O)C(=O)O", "note": "(stereo unspecified)", "values": [
      {"measurement": "IC50", "setting": "[2]", "value": 31.2, "unit": "µM"},
      {"measurement": "IC50", "setting": "[3]", "value": 65.4, "unit": "µM"}
    ]},
    {"smiles": "COC(=O)/C=C1\\O[C@@]2(C)C/C=C/C(C)(C)C[C@@H]3Cc4c(C)cc(=O)c(O)cc4O[C@]3(C)[C@H](O)C[C@@H]2C[C@@]12OC(=O)C=C2C", "values": [
      {"measurement": "IC50", "setting": "MCF7 [4]", "value": 0.5, "unit": "µM"},
      {"measurement": "IC50", "setting": "A549", "value": 0.5, "unit": "µM"},
      {"measurement": "IC50", "setting": "SF-268", "value": 0.5, "unit": "µM"},
      {"measurement": "IC50", "setting": "HepG2", "value": 0.5, "unit": "µM"}
    ]},
    {"smiles": "C/C=C/C=C/C1=C(CO)[C@@H](O)[C@@H](O)[C@@H](CC=C(C)C)C1=O", "values": [
      {"measurement": "IC50", "setting": "[5]", "value": 18, "unit": "µM"}
    ]},
    {"smiles": "C[C@]1(O)C=Cc2cc(C(=O)O)ccc2OC1", "values": [
      {"measurement": "IC50", "setting": "HeLa", "value": 38.6, "unit": "µM"},
      {"measurement": "IC50", "setting": "SW480", "value": 16.3, "unit": "µM"}
    ]},
    {"smiles": "CC1=CC[C@H]2C(C)(C)C(=O)CC[C@]2(C)[C@H]1C[C@@]12O[C@@H]1[C@H](O)C(CO)=C[C@H]2O", "values": [
      {"measurement": "MIC", "setting": "[6]", "value": 9.48, "unit": "µg/mL"}
    ]},
    {"smiles": "C/C(=C\\CC/C(=C/Cc1cc(O)ccc1O)C(=O)O)CC[C@@H](O)C(C)(C)O", "values": [
      {"measurement": "IC50", "setting": "[7]", "value": 18.1, "unit": "µM"},
      {"measurement": "IC50", "setting": "[8]", "value": 14.6, "unit": "µM"},
      {"measurement": "IC50", "setting": "[9]", "value": 11.1, "unit": "µM"}
    ]},
    {"smiles": "CC(C)=CCc1ccc2c3c([nH]c2c1)[C@@]1(C)[C@@H](CC[C@@]2(O)[C@@]45O[C@@H]4[C@H](O)[C@@H](C(C)(C)O)O[C@H]5CC[C@@]21C)C3", "values": [
      {"measurement": "MIC", "setting": "Botrytis cinerea", "value": 25, "unit": "µg/mL"},
      {"measurement": "MIC", "setting": "Fusarium graminearum", "value": 25, "unit": "µg/mL"},
      {"measurement": "MIC", "setting": "Verticillium dahliae [10]", "value": 25, "unit": "µg/mL"},
      {"measurement": "MIC", "setting": "Sclerotinia sclerotiorum", "value": 25, "unit": "µg/mL"},
      {"measurement": "MIC", "setting": "Phytophthora nicotianae [11]", "value": 25, "unit": "µg/mL"},
      {"measurement": "MIC", "setting": "Colletotrichum acutatum", "value": 25, "unit": "µg/mL"},
      {"measurement": "MIC", "setting": "Bipolaris maydis", "value": 25, "unit": "µg/mL"}
    ]},
    {"smiles": "C=C(C)[C@H]1O[C@H]2CC[C@@]3(C)[C@@](O)(CC[C@@]4(O)[C@@H]5OC(C)(C)[C@H]6C[C@@H]7C(=C)Cc8ccc9[nH]c(c5c9c8[C@@]76O)[C@]34C)[C@]23O[C@@H]3[C@H]1O", "values": [
      {"measurement": "LC50", "setting": "[12]", "value": 4.6, "unit": "µM"}
    ]},
    {"smiles": "CC(=O)O[C@H]1C[C@@H](O)[C@@]2(C)[C@@H](CC[C@]3(C)[C@@H]2CC[C@]2(C)Oc4oc(C)cc(=O)c4C[C@@H]32)C1(C)C", "values": [
      {"measurement": "IC50", "setting": "KB", "value": 32.7, "unit": "µM"},
      {"measurement": "MIC", "setting": "[13]", "value": 26.4, "unit": "µM"},
      {"measurement": "IC50", "setting": "NCI-H187", "value": 32.7, "unit": "µM"}
    ]},
    {"smiles": "Cc1oc(=O)c2c(c1C)O[C@]1(C)[C@H](O)C(=O)[C@]3(O)C(C)(C)C(=O)C[C@@]3(O)[C@H](C)[C@H]1C2", "values": [
      {"measurement": "MIC", "setting": "Bacillus subtilis", "value": 12.5, "unit": "µg/mL"},
      {"measurement": "MIC", "setting": "Phytophthora nicotianae [14]", "value": 12.5, "unit": "µg/mL"},
      {"measurement": "MIC", "setting": "Verticillium dahliae [15]", "value": 12.5, "unit": "µg/mL"}
    ]},
    {"smiles": "C=C(C)[C@H]1O[C@H]2CC[C@@]3(C)[C@@](O)(CC[C@@]4(O)[C@@H]5OC(C)(C)[C@H]6C[C@@H]7C(=C)Cc8c(Cl)cc9[nH]c(c5c9c8[C@@]76O)[C@]34C)[C@]23O[C@@H]3[C@H]1O", "values": [
      {"measurement": "LC50", "setting": "[12]", "value": 3.2, "unit": "µM"}
    ]},
    {"smiles": "C/C=C(\\C)C(=O)[C@H](C)C1=CC(=O)C2=C(O[C@@]3(C)CC[C@H]4OC(C(C)(C)O)CC[C@]4(C)[C@H]3C2)C1=O", "note": "(stereo partly specified)", "values": [
      {"measurement": "IC50", "setting": "Bipolaris oryzae", "value": 0.1, "unit": "µg/mL"}
    ]}
  ]
}
